{
  "source": "patent US11484032B2",
  "about": "“Compositions for inhibition of insect sensing” (Vanderbilt University, priority 2011, dated 2022)",
  "key": {"[1]": {"biological_target": "T1, AgOrco+AgOR65 (Anopheles gambiae, UniProt Q7QCC7)", "T1 construct": "expressed in transfected cells", "T1 sequence (Q7QCC7 1-478)": "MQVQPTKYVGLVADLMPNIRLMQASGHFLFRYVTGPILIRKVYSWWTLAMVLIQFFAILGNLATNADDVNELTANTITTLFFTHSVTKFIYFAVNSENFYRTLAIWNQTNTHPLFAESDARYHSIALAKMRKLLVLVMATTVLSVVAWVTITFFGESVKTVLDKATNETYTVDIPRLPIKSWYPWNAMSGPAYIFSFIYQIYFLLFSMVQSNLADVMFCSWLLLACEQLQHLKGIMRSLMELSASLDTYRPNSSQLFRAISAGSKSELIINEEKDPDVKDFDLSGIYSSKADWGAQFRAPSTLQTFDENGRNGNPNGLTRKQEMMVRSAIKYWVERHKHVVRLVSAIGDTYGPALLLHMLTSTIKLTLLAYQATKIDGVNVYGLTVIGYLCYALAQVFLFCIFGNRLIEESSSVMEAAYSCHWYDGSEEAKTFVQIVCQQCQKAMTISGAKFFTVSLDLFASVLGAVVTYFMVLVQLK", "experiment": "Ca2+ imaging, HEK cells expressing AgOrco+AgOR65", "type": "cell-based", "excerpt": "(§1) For transient transfections, ORs were cloned into pCl (Promega) and transfected into Flp-In™ T-REx™293 cell lines (Invitrogen) with Fu GENE6 (Roche). For the creation of stable cell lines, a cell culture expression vector capable of expressing Orco in conjunction with a conventional OR, pcDNA5/FRT/TO (Invitrogen) was modified to create two individual expression cassettes each under the control of a separate CMV/Tet02 promoter and a BGH poly-adenylation signal. Cells (as above) were transfected with the modified pcDNA5 plasmid along with POG44 (a Flp recombinase expression plasmid) to facilitate site-specific recombination. Stable cell lines were selected using Hygromycin B (Invitrogen). Cells were maintained in DMEM (Invitrogen) supplemented with 10% Tetracycline-free FBS (HyClone) and 15 ng/ml Blasticidin. For fluorometric Ca2+ measurements, stable lines expressing ORs of interest were seeded at 20,000 cells/well in black wall, poly-lysine coated 384-well cell culture plates (Greiner) and treated with […] tetracycline (Sigma) overnight to induce OR expression. Cells were dye-loaded with 1.8 uM Fluo-4 AM (Molecular Probes), 2.5 mM Probenecid (Molecular Probes) in assay buffer (20 mM HEPES, IX HBSS) for 45 minutes at 37° C. in 5% CO2 prior to each assay. Ca^2+ mobilization was assayed in an FDSS6000 (Hamamatsu). Baseline readings were taken for 20 s before automated addition of compound previously diluted in DMSO and assay buffer. Ratios were described as Maximum/Minimum response and each response was normalized to the maximum responder.\nFor VUAA0, a single methyl from the para position of the aniline ring (compound VUAA0, FIG. 44) in the VUAA1 structure was removed. […] In VUAA0.5, unsaturation was introduced at the para position of the aniline ring (VUAA0.5, FIG. 44). […] In VUAA2, the ethyl group of the aniline ring in VUAA1 was replaced with an isopropyl group (VUAA2, FIG. 44)."}, "[2]": {"tested_on": "An. gambiae early 4th instar larvae", "experiment": "Larval mosquito movement assay (Daniovision-Ethovision)", "type": "in vivo, Anopheles gambiae", "conditions": "compared with DMSO controls or VUAA1", "description": "Next, the agonist activity of the VUAA compound class was tested to establish the involvement of AgORs in mediating larval ortho and klinokinesis in response to a series of semiochemicals using larval-stage An. gambiae mosquitoes. Mosquito larvae are aquatic, thus compounds can be delivered to individual early 4th instar larvae regardless of volatility. The assay currently utilizes 6-well plates and the Daniovision-Ethovision platform (Noldus Inc.) to simultaneously record and analyze 6 larvae, thereby providing modest rates of throughput and a high degree of reproducibility. In these assays, larval movements are automatically quantified over 5-minute period and control larvae consistently move the same number of times in the presence or absence of 0.1% DMSO (p=0.80, n=31) (FIGS. 42-43). Furthermore, the effects of the widely-used synthetic insect repellent N, N-diethyl-meta-toluamide (DEET) was tested and DEET was also observed to increase larval movements at and above a threshold concentration of 5×10^−4M (p=0.013, n=27) (FIGS. 42-43)."}, "[3]": {"biological_target": "T2, AgORco+AgOR48 (Anopheles gambiae, UniProt Q7QCC7)", "T2 construct": "expressed in transfected cells", "T2 sequence (Q7QCC7 1-478)": "T1 sequence (Q7QCC7 1-478)", "experiment": "Ca2+ imaging, HEK cells expressing AgORco+AgOR48", "type": "cell-based", "conditions": "for pEC50: read-out: Orco + 48 Agonist EC50; for Orco + 48 Agonist % value Of VUAA1: relative to VUAA1; for Orco + 48 Agonist EC50 (given only relative to VUAA1): comparison with VUAA1 in words", "excerpt": "as §1\nThe ability of VUAA1 and its analogs to agonize representative ORco proteins from dipteran (Anopheles gambiae, AgORco), lepidopteran (Heliothis virescens, HvORco) and hymenopteran (Harpegnathos saltator, HsORco) orders was tested. […] Furthermore, the hierarchy of VUAA series potency was the same, irrespective of whether AgORco was co-expressed with AgOR65 or AgOR48 tuning ORs (FIG. 45). Without wishing to be bound by a particular theory, odorant ligands are thought to activate the complex via interaction with the tuning ORx and thereby affect ORco/ORx channel properties. […] These findings indicate VUAA-class OR co-modulators are viable compounds for further development as broad-spectrum insect control strategies, and VUAA4 can provide an advance in the pharmacological profile of VUAA-based compounds."}, "[4]": {"biological_target": "T3, Orco (AgORco) (Anopheles gambiae, UniProt Q7QCC7)", "T3 construct": "expressed in transfected cells", "T3 sequence (Q7QCC7 1-478)": "T1 sequence (Q7QCC7 1-478)", "experiment": "Fluo-4 Ca2+ imaging, HEK293 cells expressing Orco alone", "type": "cell-based", "conditions": "for Emax: HEK293, read-out: Orco Agonist % value Of VUAA1; for pEC50: read-out: Orco Agonist EC50", "excerpt": "as §1"}, "[5]": {"biological_target": "T4, AgORco+AgOR10 (Anopheles gambiae, UniProt Q7QCC7)", "T4 construct": "expressed in transfected cells", "T4 sequence (Q7QCC7 1-478)": "T1 sequence (Q7QCC7 1-478)", "experiment": "Fluo-4 Ca2+ imaging, HEK293 cells expressing Orco+AgOR10", "type": "cell-based", "set-up": "Orco 10 + Orco Angatonist % Reduction / Orco 10 + Orco Agonist % of control: concentration or dose not given beside the values", "conditions": "10 + Orco; for Orco 10 + Orco Agonist, compared with VUAA1: agonist mode, qualitative, relative to VUAA1", "excerpt": "as §1\nAs part of an ongoing, cell based calcium imaging screen for novel small-molecule modulators of AgORs that might disrupt olfactory-driven mosquito behaviors (Rinker et al manuscript in preparation), the inventors identified a number of compounds that activated AgOR10+AgORco-expressing human embryonic kidney (HEK293) cells. One of these compounds, (FIG. 3 A) denoted here as VUAA1, elicited activity consistent with allosteric agonism and was pursued for its novel properties. The identity of VUAA1 was verified using high-resolution mass spectrometry (HRMS) as well as ^1H and ^13C NMR. […] As AgORco was the common element among these functional responses, the inventors postulated that VUAA1 was a potential AgORco agonist."}, "[6]": {"conditions": "heteromeric OR channels AgOrco+AgOR65, read-out: EC50"}, "[7]": {"conditions": "Orco + 65, read-out: Orco + 65 Agonist EC50"}},
  "note": "pEC50: −log10 of the molar value. Where two headings read alike, the source gives them in different places.",
  "data": [
    {"smiles": "C=Cc1ccc(NC(=O)CSc2nnc(-c3cccnc3)n2CC)cc1", "note": "[VUAA0.5, 2-((4-ethyl-5-(pyridin-3-yl)-4H-1,2,4-triazol-3-yl)thio)-N-(4-vinylphenyl)acetamide]", "values": [
      {"measurement": "pEC50", "setting": "[1]; [6]", "value": 3.96},
      {"measurement": "larval behavioral (movement) response", "setting": "[2]", "value": "comparable to DMSO controls"}
    ]},
    {"smiles": "CCn1c(SCC(=O)Nc2ccc(C(C)C)cc2)nnc1-c1ccncc1", "values": [
      {"measurement": "pEC50", "setting": "[1]; [7]", "value": 5.09},
      {"measurement": "pEC50", "setting": "[3]; Orco + 48", "value": 5.46},
      {"measurement": "Orco + 48 Agonist % value Of VUAA1", "setting": "[3]; Orco + 48", "value": 112, "unit": "%"},
      {"measurement": "Emax", "setting": "[4]", "value": 136, "unit": "%"},
      {"measurement": "pEC50", "setting": "[4]; Orco alone", "value": 5.13}
    ]},
    {"smiles": "CCn1c(SCC(=O)Nc2ccc(C(C)C)cc2)nnc1-c1ccnc(F)c1", "values": [
      {"measurement": "pEC50", "setting": "[3]; Orco + 48", "value": 4.12},
      {"measurement": "Orco + 48 Agonist % value Of VUAA1", "setting": "[3]; Orco + 48", "value": 62, "unit": "%"},
      {"measurement": "Emax", "setting": "[4]", "value": 38, "unit": "%"},
      {"measurement": "pEC50", "setting": "[4]; Orco alone", "value": 4.00}
    ]},
    {"smiles": "CCn1c(SCC(=O)Nc2ccc(Br)cc2F)nnc1-c1cccnc1", "values": [
      {"measurement": "Orco 10 + Orco Agonist, compared with VUAA1", "setting": "[5]", "value": "<VUAA1"},
      {"measurement": "Orco 10 + Orco Angatonist % Reduction", "setting": "[5]; antagonist mode", "value": 0.00, "unit": "%"},
      {"measurement": "Orco Agonist value compared with VUAA1", "setting": "[4]; Orco alone, qualitative, relative to VUAA1", "value": "<VUAA1"},
      {"measurement": "pEC50", "setting": "[4]; Orco alone", "value": 3.72}
    ]},
    {"smiles": "C=Cc1ccc(NC(=O)CSc2nnc(-c3cccnc3)n2CC)cc1", "note": "[drawing 376]", "values": [
      {"measurement": "pEC50", "setting": "[3]; Orco + 48", "value": 4.43},
      {"measurement": "Orco + 48 Agonist % value Of VUAA1", "setting": "[3]; Orco + 48", "value": 77, "unit": "%"},
      {"measurement": "Orco 10 + Orco Agonist, compared with VUAA1", "setting": "[5]", "value": "<VUAA1"},
      {"measurement": "Emax", "setting": "[4]", "value": 57, "unit": "%"},
      {"measurement": "pEC50", "setting": "[4]; Orco alone", "value": 3.99}
    ]},
    {"smiles": "O=C(CSc1nnc(-c2ccncc2)n1C1CC1)Nc1ccc(Br)cc1F", "values": [
      {"measurement": "Orco + 48 Agonist % value Of VUAA1", "setting": "[3]; Orco + 48, agonist", "value": "<VUAA1"},
      {"measurement": "Orco + 48 Agonist EC50 (relative to VUAA1)", "setting": "[3]; Orco + 48, agonist, stated in words relative to VUAA1", "value": "<VUAA1"}
    ]},
    {"smiles": "CCc1ccc(NC(=O)CSc2nnc(-c3ccncc3)n2CC)cc1", "values": [
      {"measurement": "Orco + 48 Agonist EC50 (given only relative to VUAA1)", "setting": "[3]; Orco + 48", "value": "<VUAA1"},
      {"measurement": "Orco + 48 Agonist % value Of VUAA1", "setting": "[3]; Orco + 48", "value": "<VUAA1"}
    ]},
    {"smiles": "CCn1c(SCC(=O)Nc2ccc(C)cc2)nnc1-c1cccnc1", "note": "[drawing 372]", "values": [
      {"measurement": "pEC50", "setting": "[1]; [7]", "value": 3.47},
      {"measurement": "pEC50", "setting": "[3]; Orco + 48", "value": 3.00},
      {"measurement": "pEC50", "setting": "[4]; Orco alone", "value": 3.58}
    ]},
    {"smiles": "CCn1c(SCC(=O)Nc2ccc(C(C)C)cc2)nnc1-c1cccnc1", "note": "[VUAA2, 2-((4-ethyl-5-(pyridin-3-yl)-4H-1,2,4-triazol-3-yl)thio)-N-(4-isopropylphenyl)acetamide]", "values": [
      {"measurement": "pEC50", "setting": "[1]; [6]", "value": 5.04},
      {"measurement": "larval behavioral (movement) response", "setting": "[2]", "value": "not observed to elicit larval responses greater than VUAA1"}
    ]},
    {"smiles": "CCn1c(SCC(=O)Nc2ccc(C(C)C)cc2)nnc1-c1cncs1", "values": [
      {"measurement": "pEC50", "setting": "[3]; Orco + 48, agonist", "value": 4.77}
    ]},
    {"smiles": "CCCn1c(SCC(=O)Nc2ccc(C(C)C)cc2)nnc1-c1ccncc1", "values": [
      {"measurement": "pEC50", "setting": "[3]; Orco + 48, agonist", "value": 4.72}
    ]},
    {"smiles": "CCn1c(SCC(=O)Nc2ccc(C(C)C)cc2)nnc1-c1cc[nH]c1", "values": [
      {"measurement": "pEC50", "setting": "[3]; Orco + 48, agonist", "value": 4.86},
      {"measurement": "Orco + 48 Agonist % value Of VUAA1", "setting": "[3]; Orco + 48, agonist", "value": "Poor"}
    ]},
    {"smiles": "CCn1c(SCC(=O)Nc2ccc(Br)cc2F)nnc1-c1ccncc1", "values": [
      {"measurement": "Orco + 48 Agonist EC50 (given only relative to VUAA1)", "setting": "[3]; Orco + 48", "value": "<VUAA1"},
      {"measurement": "Orco + 48 Agonist % value Of VUAA1", "setting": "[3]; Orco + 48", "value": "<VUAA1"}
    ]},
    {"smiles": "CCn1c(SCC(=O)Nc2ccc(C(C)C)cc2)nnc1-c1cc[nH]n1", "values": [
      {"measurement": "Orco Agonist % value Of VUAA1", "setting": "[4]; Orco alone, agonist, relative to VUAA1", "value": "<VUAA1"},
      {"measurement": "Orco Agonist EC50 (relative to VUAA1)", "setting": "[4]; Orco alone, agonist, stated in words relative to VUAA1", "value": "<VUAA1"}
    ]}
  ]
}
